Patent US12139508B2, “Steroid derivative regulators, method for preparing the same, and uses thereof” (JIANGSU HANSOH PHARMACEUTICAL GROUP CO., LTD., priority 2018, dated 2024)

Columns and labels:
GABA-A receptor = test: 35S-TBPS binding assay (GABAA receptor binding ability test); parameters: species or system Sprague-Dawley rat; conditions: rat cerebral cortex cell membrane, 5 μM GABA, 2 nM 35S-TBPS; read-out: 35S-TBPS bindng test: IC50 on inhibiting the TBPS binding activity
How it was run: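 Rat (male Sprague-Dawley) cortical membranes in PBS were preincubated 5 min at 25° C with compound (from 1 μM, 3-fold, 8 points, 1% DMSO), then 5 μM GABA 5 min, then 2 nM ^35S-TBPS for 20 h at 4° C. Filter-bound counts gave % inhibition against DMSO and 10 μM P026-2 controls; IC50 by 4-parameter fit.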

[1] = tested on: PTZ-induced epilepsy model in CD-1 mice; test: In vivo pharmacodynamic test in the PTZ-induced epilepsy model in mice; conditions: dose 3 mpk p.o., PTZ 120 mg/kg s.c., 30 min observation
Procedure: The PTZ-induced epilepsy model in CD-1 mice was established, and the antiepileptic effect of the compounds of Example 3, Example 60, Example 61 and Example 74 was evaluated using this model.
50 male CD-1 mice were purchased from Beijing Vital River Laboratory Animal Technology Co. Ltd. The test animals were adapted at the animal room in the third building of Shanghai ChemPartner Co., Ltd for 7 days before the test. The average body weight of the animals on the test day was 32.2±0.2 grams. Feeding environment: 5 animals/cage, room temperature 23±2° C., 12/12 hours of light and dark cycle, free acess to food and water.
4.2.1 Test Equipments • 1 ml sterile disposable syringe with needle (purchased from Zhejiang Kangdelai Medical Devices Co., Ltd.) • Pipette: Eppendorf Research Plus (100-1000 L) • Vortex mixer: Kylin-Bell Vortex 5 • Ultrasonic instrument: JL-360 ultrasonic cleaner • Balance: METTLER TOLEDO™ XS204 precision balance (note: METTLER TOLEDO™ is a kind of balance used in labs and industry) • Balance: METTLER TOLEDO™ XS6002S electronic balance (note: METTLER TOLEDO™ is a kind of balance used in labs and industry) • Plexiglass box: 25 cm length*15 cm width*15 cm height with one opaque side wall, custom made by Suzhou Fengshi Laboratory Animal Equipment Co., Ltd • 3-channel timer: Oregon/Model NO.WB-388. 4.2.2 Test Animal Grouping • 1) Vehicle/PTZ: 0.5% CMC-Na+1% Tween-80 (10 ml/kg, p.o.), administered 0.5 hr before the PTZ administration; PTZ ([…], s.c.), administered before the test; • 2) 3 mg/kg of the compounds of Examples/PTZ: the compounds of Example 3, Example 60, Example 61 and Example 74 (3 mg/kg, 10 ml/kg, p.o.), administered 0.5 hr before the PTZ administration; PTZ ([…], s.c.), administered before the test. 4.3 Experimental Procedures 4.3.1 Solvent Formulation 1) 0.5% CMC-Na+1% Tween-80 (Administration Volume: 10 mL/Kg):
4.4 Adaptation to the Environment
The mice were randomly grouped, marked and weighed; 10 mice per group. The test compound was administered orally at an administration volume of 10 mL/kg 30-60 minutes before the PTZ administration.
PTZ (120 mg/kg) was administrated subcutaneously before the test observation, and this time point was recorded as the observation start point; after the administration of PTZ, the animal was immediately placed in the observation box and observed for 30 minutes, and the followings were recorded: a) the incubation period of the first clonic seizure, b) the incubation period of the first generalized tonic seizure, c) the number of clonic seizures, d) the number of generalized tonic seizures, e) the time when the animal died.
All measurement data were expressed as Mean±SEM, and analysed with Prism 6.0 statistical software.

C[C@@]1(O)CC[C@H]2[C@H](CC[C@@H]3[C@@H]2CC[C@@]2(C)[C@H]3[C@@H]3C[C@@H]3[C@@H]2C(=O)Cn2cc(C#N)cn2)C1 [Example 2, 1-(2-((2R,4aS,4bR,6aS,7S,7aS,8aR,8bR,8cR,10aR)-2-hydroxy-2,6a-dimethyloctadecahydrocyclopropa[4,5]cyclopenta[1,2-a]phenanthren-7-yl)-2-oxoethyl)-1H-pyrazole-4-carbonitrile]
IC50 (GABA-A receptor): 24.3 nM

C[C@@]1(O)CC[C@H]2[C@H](CC[C@@H]3[C@@H]2CC[C@@]2(C)[C@H]3[C@@H]3C[C@@H]3[C@@H]2C(=O)Cn2ccc(C#N)n2)C1 [Example 3, 1-(2-((2R,4aS,4bR,6aS,7S,7aS,8aR,8bR,8cR,10aR)-2-hydroxy-2,6a-dimethyloctadecahydrocyclopropa[4,5]cyclopenta[1,2-a]phenanthren-7-yl)-2-oxoethyl)-1H-pyrazole-3-carbonitrile]
IC50 (GABA-A receptor): 14.9 nM | Incubation period of the clonic seizure, Mean ± SEM [1]: 902.9 ± 200.8 s | Incubation period of the generalized tonic seizure, Mean [1]: 1736.0 ± 63.2 s | Mortality rate [1]: 10% | Number of clonic seizures, Mean [1]: 1.3 ± 0.3 | Number of generalized tonic seizures, Mean [1]: 0.1 ± 0.1 | Time when the animal died, Mean [1]: 1739.8 ± 60.2 s

C[C@@]1(O)CC[C@H]2[C@H](CC[C@@H]3[C@@H]2CC[C@@]2(C)[C@H]3[C@@H]3C[C@@H]3[C@@H]2C(=O)Cn2cc(C(F)(F)F)cn2)C1 [Example 5, 1-((2R,4aS,4bR,6aS,7S,7aS,8aR,8bR,8cR,10aR)-2-Hydroxy-2,6a-dimethyloctadecahydrocyclopropa[4,5]cyclopenta[1,2-a]phenanthren-7-yl)-2-(4-(trifluoromethyl)-1H-pyrazol-1-yl)ethan-1-one]
IC50 (GABA-A receptor): 13.5 nM

C[C@@H]1C[C@H](C(=O)Cn2cc(C#N)cn2)[C@@]2(C)CC[C@H]3[C@@H](CC[C@@H]4C[C@](C)(O)CC[C@@H]43)[C@H]12 [Example 13, 1-(2-((3R,5R,8R,9R,10S,13S,14S,15R)-3-Hydroxy-3,13,15-trimethylhexadecahydro-1H-cyclopenta[a]phenanthren-17-yl)-2-oxoethyl)-1H-pyrazole-4-carbonitrile]
IC50 (GABA-A receptor): 4.6 nM

C[C@@H]1C[C@H](C(=O)Cn2ccc(C#N)n2)[C@@]2(C)CC[C@H]3[C@@H](CC[C@@H]4C[C@](C)(O)CC[C@@H]43)[C@H]12 [Example 60, 1-(2-((3R,5R,8R,9R,10S,13S,14S,15R,17S)-3-Hydroxy-3,13,15-trimethylhexadecahydro-1H-cyclopenta[a]phenanthren-17-yl)-2-oxoethyl)-1H-pyrazole-3-carbonitrile]
IC50 (GABA-A receptor): 8.2 nM | Incubation period of the clonic seizure, Mean ± SEM [1]: 1308.1 ± 170.1 s | Incubation period of the generalized tonic seizure, Mean [1]: 1800.0 ± 0.0 s | Mortality rate [1]: 0% | Number of clonic seizures, Mean [1]: 0.5 ± 0.2 | Number of generalized tonic seizures, Mean [1]: 0.0 ± 0.0 | Time when the animal died, Mean [1]: 1800.0 ± 0.0 s

C[C@@]1(O)CC[C@H]2[C@H](CC[C@@H]3[C@@H]2CC[C@]2(C)C(C(=O)Cn4cc(C#N)cn4)C[C@@H](C4CC4)[C@@H]32)C1 (stereo partly drawn) [Example 71, 1-(2-((3R,5R,8R,9R,10S,13S,14S,15S)-15-Cyclopropyl-3-hydroxy-3,13-dimethylhexadecahydro-1H-cyclopenta[a]phenanthren-17-yl)-2-oxoethyl)-1H-pyrazole-4-carbonitrile]
IC50 (GABA-A receptor): 7.5 nM

CC[C@@H]1C[C@H](C(=O)Cn2ccc(C#N)n2)[C@@]2(C)CC[C@H]3[C@@H](CC[C@@H]4C[C@](C)(O)CC[C@@H]43)[C@H]12 [Example 137, 1-(2-((3R,5R,8R,9R,10S,13S,14S,15R,17S)-15-Ethyl-3-hydroxy-3,13-dimethylhexadecahydro-1H-cyclopenta[a]phenanthren-17-yl)-2-oxoethyl)-1H-pyrazole-3-carbonitrile]
IC50 (GABA-A receptor): 16.2 nM

C[C@@]1(O)CC[C@H]2[C@H](CC[C@@H]3[C@@H]2CC[C@@]2(C)[C@H]3[C@H](C3CC3)C[C@@H]2C(=O)Cn2ccnn2)C1 [Example 145, 1-((3R,5R,8R,9R,10S,13S,14S,15S,17S)-15-Cyclopropyl-3-hydroxy-3,13-dimethylhexadecahydro-1H-cyclopenta[a]phenanthren-17-yl)-2-(1H-1,2,3-triazol-1-yl)ethan-1-one]
IC50 (GABA-A receptor): 16.9 nM

C[C@@]1(O)CC[C@H]2[C@H](CC[C@@H]3[C@@H]2CC[C@@]2(C)[C@H]3[C@H](C3CC3)C[C@@H]2C(=O)Cn2ncnn2)C1 [Example 146, 1-((3R,5R,8R,9R,10S,13S,14S,15S,17S)-15-Cyclopropyl-3-hydroxy-3,13-dimethylhexadecahydro-1H-cyclopenta[a]phenanthren-17-yl)-2-(2H-tetrazol-2-yl)ethan-1-one]
IC50 (GABA-A receptor): 21.4 nM
